Tests used:
Assay type in all cases: cell-based
Pseudomonas aeruginosa = experiment: Agar plate disc-diffusion, antibacterial, Pseudomonas aeruginosa; details: Gram negative
Description: (§1) The agar plate disc-diffusion method was applied. […] The discs were then placed onto the surface of agar plates (nutrient agar for bacteria and Sabouraud's dextrose agar for fungi) seeded with the test organism. Each plate contained 15 mL of the agar medium, previously seeded with 0.2 mL of the broth culture of each organism pregrown for 18 hours. The plates were incubated at 37° C. for 48 hours and 72 hours for fungi. The inhibition zones were measured in mm. Discs impregnated with DMSO were used as a control, and their inhibition zone was subtracted from the tested compound's actual inhibition zone.

Aspergillus flavus = experiment: Agar plate disc-diffusion, antifungal, Aspergillus flavus; details: Fungal
Description: as §1

Staphylococcus aureus = experiment: Agar plate disc-diffusion, antibacterial, Staphylococcus aureus; details: Gram positive
Description: as §1

Bacillus cereus = experiment: Agar plate disc-diffusion, antibacterial, Bacillus cereus; details: Gram positive
Description: as §1

Escherichia coli = experiment: Agar plate disc-diffusion, antibacterial, Escherichia coli; details: Gram negative
Description: as §1

[1] = tested on: Chrysosporium keratinophilum; experiment: Agar plate disc-diffusion, antifungal, Chrysosporium keratinophilum; details: Fungal
Description: as §1

[2] = A = concentration of comp. = 10,000 μL
[3] = B = concentration of comp. = 30,000 μL
[4] = C = concentration of comp. = 50,000 μL

N/C(=N\OC(=O)CSc1nnc(-c2ccc(Cl)cc2)o1)c1cccc2ccccc12 [compound 3, N′-(2-(5-(4-chlorophenyl)-1,3,4-oxadiazol-2-ylthio)acetoxy)-1-naphthimidamide]
inhibition zone, Pseudomonas aeruginosa, A (Pseudomonas aeruginosa; [2]): 26 mm
inhibition zone, Pseudomonas aeruginosa, B (Pseudomonas aeruginosa; [3]): 28 mm
inhibition zone, Pseudomonas aeruginosa, C (Pseudomonas aeruginosa; [4]): 45 mm
inhibition zone, Aspergillus flavus, A (Aspergillus flavus; [2]): 24 mm
inhibition zone, Aspergillus flavus, B (Aspergillus flavus; [3]): 27 mm
inhibition zone, Aspergillus flavus, C (Aspergillus flavus; [4]): 36 mm
inhibition zone, Staphylococcus aureus, A (Staphylococcus aureus; [2]): 27 mm
inhibition zone, Staphylococcus aureus, B (Staphylococcus aureus; [3]): 30 mm
inhibition zone, Staphylococcus aureus, C (Staphylococcus aureus; [4]): 38 mm
inhibition zone, Bacillus Cereus, A (Bacillus cereus; [2]): 22 mm
inhibition zone, Bacillus Cereus, B (Bacillus cereus; [3]): 25 mm
inhibition zone, Bacillus Cereus, C (Bacillus cereus; [4]): 34 mm
inhibition zone, Escherichia coli, A (Escherichia coli; [2]): 26 mm
inhibition zone, Escherichia coli, B (Escherichia coli; [3]): 32 mm
inhibition zone, Escherichia coli, C (Escherichia coli; [4]): 50 mm
inhibition zone, Chrysosporium keratinophilum, A [1, 2]: 22 mm
inhibition zone, Chrysosporium keratinophilum, B [1, 3]: 28 mm
inhibition zone, Chrysosporium keratinophilum, C [1, 4]: 39 mm

Reference: patent US11999707B1, “N′-(2-(5-(4-chlorophenyl)-1,3,4-oxadiazol-2-ylthio)acetoxy)-1-naphthimidamide as an antimicrobial compound” (KING FAISAL UNIVERSITY, priority 2023, dated 2024)
